The values that follow are results of earlier work, collected in patent US4351830A (priority 1980, dated 1982).

For data set [1] the following is noted: literature.
The test system of the next data set is bacterial infections. The conditions noted are these: literature.

In the case of `CC(=O)N[C@H]1C(O)O[C@H](CO)[C@@H](O)[C@@H]1O[C@H](C)C(=O)N[C@@H](C)C(=O)N[C@H](CCC(=O)O)C(N)=O` (stereo partly drawn) [N-acetylmuramyl-L-alanyl-D-isoglutamine], the adjuvant effect entry in data set [1] was “high adjuvant effect”. In the case of `CC(=O)N[C@H]1C(O)O[C@H](CO)[C@@H](O)[C@@H]1O[C@H](C)C(=O)N[C@@H](C)C(=O)N[C@H](CCC(N)=O)C(=O)O` (stereo partly drawn) [N-acetylmuramyl-L-alanyl-D-glutamine], the adjuvant effect result in data set [1] is “high adjuvant effect”. In the case of orthobenzoic acid oxide, the “protective activity against bacterial infections” value in the data set on bacterial infections is recorded as “exhibits a protective activity against bacterial infections”.
